Source: PubChem BioAssay (NCI)
Values joined by “and” are separate entries in the source; they are usually repeats but may differ in a detail not shown here. Equal values may be shown once.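 Compound exposure: 48 hours, 5 concentrations, 96-well plates. GI50 marks 50% less growth. TGI: total growth inhibition.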

How the values were obtained:
Test in all cases: NCI anticancer screen, dose series, 48 h
[1] = system: HL-60(TB) leukemia
[2] = system: RPMI-8226 leukemia
[3] = system: LOX IMVI melanoma
[4] = system: SK-MEL-28 melanoma
[5] = system: SK-MEL-5 melanoma
[6] = system: CAKI-1 renal
[7] = system: A498 renal
[8] = system: SK-MEL-2 melanoma
[9] = system: COLO 205 colon
[10] = system: M14 melanoma

Row | SMILES | TGI [1] | TGI [2] | TGI [3] | TGI [4] | TGI [5] | TGI [6] | TGI [7] | TGI [8] | TGI [9] | TGI [10] | GI50 [1] | GI50 [2] | GI50 [3] | GI50 [4] | GI50 [5] | GI50 [6] | GI50 [7] | GI50 [8] | GI50 [9] | GI50 [10]
1 | CCCC/C(C)=N/NC(N)=S | > 100 µM | > 100 µM | > 100 µM | > 100 µM | > 100 µM | > 100 µM | > 100 µM | > 100 µM | > 100 µM | > 100 µM |  |  |  |  |  |  |  |  |  | 
2 | C/C(=N\NC(=S)Nc1ccc([N+](=O)[O-])cc1S(=O)(=O)O)c1ccccn1 | 84.8 µM | > 100 µM | > 100 µM | > 100 µM | > 100 µM | > 100 µM | 88.8 µM | 91.3 µM | > 100 µM | > 100 µM |  |  |  |  |  |  |  |  |  | 
3 | Fc1cc(Nc2ccc3c(OCCCN4CCOCC4)cccc3n2)ccc1Cl | 7.77 µM | 6.97 µM | 3.17 µM | 3.56 µM | 4.39 µM | 5.1 µM | 6.73 µM | 4.04 µM | 3.43 µM | 4.42 µM | 2.68 µM | 2.64 µM | 1.71 µM | 1.82 µM | 2.1 µM | 1.89 µM | 2.42 µM | 1.96 µM | 1.82 µM | 2.05 µM
4 | Cc1cc(C#Cc2ccccc2)ccc1-n1c(/C=C/c2ccc(O)cc2)nc2ccccc2c1=O | 4.69 µM | > 100 µM | 10.8 µM | > 100 µM | 3.83 µM | 36.5 µM | 7.71 µM | 5.76 µM | 4.75 µM | 15.1 µM | 1.66 µM | 2.33 µM | 2.78 µM | 4.54 µM | 1.77 µM | 3.3 µM | 1.56 µM | 1.93 µM | 1.99 µM | 3.56 µM
5 | O=C(O)c1c(Cl)c(Cl)c(Cl)c(Cl)c1-c1c2cc(I)c(=O)c(I)c-2oc2c(I)c(O)c(I)cc12 | 85.2 µM | > 200 µM | 43.1 µM and 67.9 µM | 73 µM | 68.9 µM | 86.7 µM | 64.2 µM | 78.8 µM | 159 µM | > 200 µM | 73 µM and 42.9 µM | 122 µM | 19 µM and 34.7 µM | 55.9 µM and 32.9 µM | 36.3 µM | 39 µM | 29.5 µM and 26.1 µM | 81.4 µM and 37 µM | 45.8 µM | 58.7 µM
6 | COCCOC(=O)CCn1cc(F)c(=O)[nH]c1=O | > 150 µg/mL | > 150 µg/mL | > 150 µg/mL | > 150 µg/mL | > 150 µg/mL | > 150 µg/mL | > 150 µg/mL | > 150 µg/mL | > 150 µg/mL | > 150 µg/mL | 13.6 µg/mL | 13.8 µg/mL | 10.4 µg/mL | 31.7 µg/mL | 20.4 µg/mL | 4.07 µg/mL | 0.989 µg/mL | > 150 µg/mL | 4.75 µg/mL | 8.38 µg/mL
7 | COc1cc(C=NCC(=O)CSC(c2ccccc2)c2ccccc2)cc(OC)c1OC | 26.8 µM | 39.9 µM | > 100 µM | > 100 µM | 24.4 µM | > 100 µM | 38 µM | 50 µM | 33 µM | > 100 µM | 8.01 µM | 5.18 µM | 23.1 µM | 23.8 µM | 11.8 µM | 25.2 µM | 5.98 µM | 19.6 µM | 4.96 µM | 27 µM
8 | NC(=NC1C2CC3CC(C2)CC1C3)Nc1ccc(I)cc1 (stereo not given) | 27.2 µM | 5.72 µM | 3.51 µM | 7.58 µM | 2.95 µM | 13.1 µM | 6.77 µM | 7.62 µM | 2.64 µM | 5.04 µM | 6.43 µM | 2.49 µM | 1.78 µM | 2.53 µM | 1.57 µM | 3.29 µM | 2.47 µM | 2.63 µM | 1 µM | 2.08 µM
9 | O=c1c2c(=NCCCN3CCCC3)cc3c(=O)n(CCCN4CCCC4)c(=O)c4c(NCCCN5CCCC5)cc(c(O)n1CCCN1CCCC1)c2c4-3 | 73.5 µM | 45.8 µM | 4.19 µM | 5.31 µM | 7.17 µM | 42 µM | 4.98 µM | 6.57 µM | 4.21 µM | 20.3 µM | 11.2 µM | 4.39 µM | 1.87 µM | 2.53 µM | 2.67 µM | 10.6 µM | 2.13 µM | 2.22 µM | 1.89 µM | 6.86 µM
10 | CC(Cl)CC(=O)Nc1ccc2c(c1)oc(=O)c1cc(NC(=O)CC(C)Cl)ccc12 (stereo not given) | 29.3 µM | 23.4 µM | 21.9 µM | 34.2 µM | 27.9 µM | > 100 µM | 38 µM | 83.6 µM | > 100 µM | 37.5 µM | 9.03 µM | 1.46 µM | 4.46 µM | 16.4 µM | 11.5 µM | 19.7 µM | 16.1 µM | 2.99 µM | 14.4 µM | 12.4 µM
11 | COc1cc([N+](=O)[O-])c2ncccc2c1O | > 100 µM | > 100 µM | 33.6 µM | 7.78 µM | 2.9 µM | 30.9 µM | 4.25 µM | 52.4 µM | 3.46 µM | 3.02 µM | 43.3 µM | 27.7 µM | 3.88 µM | 2.77 µM | 1.47 µM | 4.84 µM | 1.31 µM | 9.91 µM | 1.7 µM | 1.45 µM
12 | COc1cc(SC)ccc1C(=O)N1CCCC(C)C1 (stereo not given) | > 100 µM | > 100 µM | > 100 µM | > 100 µM | > 100 µM | > 100 µM | > 100 µM | > 100 µM | > 100 µM | > 100 µM | 75.2 µM | 69.2 µM | > 100 µM | > 100 µM | 33.3 µM | > 100 µM | 34.4 µM | > 100 µM | > 100 µM | > 100 µM
13 | OCC1CC2CC1C1(C2)OCCO1 (stereo not given) | > 100 µM | > 100 µM | > 100 µM | > 100 µM | > 100 µM | > 100 µM | > 100 µM | > 100 µM | > 100 µM | > 100 µM |  |  |  |  |  |  |  |  |  | 
